As usually defined, the IC50 is the concentration needed to halve the response being measured.

Data on nine molecules can be found in US10266497B2 (ABIDE THERAPEUTICS, INC., priority 2017, dated 2019).

In assay [1] the target is T1, FAAH (Mus musculus, UniProt O08914).
T1 sequence (O08914 1-579): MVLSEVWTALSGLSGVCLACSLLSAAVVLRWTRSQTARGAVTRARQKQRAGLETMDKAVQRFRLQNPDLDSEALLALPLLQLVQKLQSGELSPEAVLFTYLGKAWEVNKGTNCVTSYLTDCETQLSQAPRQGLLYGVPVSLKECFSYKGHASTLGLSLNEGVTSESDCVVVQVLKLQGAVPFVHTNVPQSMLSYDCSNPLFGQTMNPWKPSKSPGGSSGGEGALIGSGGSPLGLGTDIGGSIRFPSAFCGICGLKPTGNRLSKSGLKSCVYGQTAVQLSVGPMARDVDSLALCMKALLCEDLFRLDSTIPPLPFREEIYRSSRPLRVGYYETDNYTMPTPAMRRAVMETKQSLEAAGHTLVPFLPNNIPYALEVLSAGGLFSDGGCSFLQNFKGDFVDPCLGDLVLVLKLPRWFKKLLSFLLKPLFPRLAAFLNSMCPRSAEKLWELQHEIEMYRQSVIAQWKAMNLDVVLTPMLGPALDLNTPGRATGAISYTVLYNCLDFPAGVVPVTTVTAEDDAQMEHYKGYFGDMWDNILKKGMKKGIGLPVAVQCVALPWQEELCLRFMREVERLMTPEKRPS
Description: In vitro competitive activity-based protein profiling, FAAH, mouse. As to conditions: read-out: FAAH % inh. 1 μM (mouse).

The target of assay [2] is T2, MAGL (Homo sapiens, UniProt Q99685).
T2 sequence (Q99685 1-303): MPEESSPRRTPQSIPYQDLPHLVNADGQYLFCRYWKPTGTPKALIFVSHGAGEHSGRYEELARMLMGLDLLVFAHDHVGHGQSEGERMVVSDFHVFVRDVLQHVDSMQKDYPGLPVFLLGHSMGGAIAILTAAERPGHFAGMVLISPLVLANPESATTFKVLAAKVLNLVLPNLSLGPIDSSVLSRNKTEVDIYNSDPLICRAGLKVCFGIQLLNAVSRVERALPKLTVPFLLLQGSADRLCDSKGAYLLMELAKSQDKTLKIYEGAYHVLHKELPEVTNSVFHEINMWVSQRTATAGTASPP
As to the kind of experiment: In vitro competitive activity-based protein profiling, MAGL, human. As to conditions: for inhibition at 1 µM: read-out: MAGL % inh. 1 μM (human).

In assay [3] the target is T3, FAAH (Homo sapiens, UniProt O00519).
T3 sequence (O00519 1-579): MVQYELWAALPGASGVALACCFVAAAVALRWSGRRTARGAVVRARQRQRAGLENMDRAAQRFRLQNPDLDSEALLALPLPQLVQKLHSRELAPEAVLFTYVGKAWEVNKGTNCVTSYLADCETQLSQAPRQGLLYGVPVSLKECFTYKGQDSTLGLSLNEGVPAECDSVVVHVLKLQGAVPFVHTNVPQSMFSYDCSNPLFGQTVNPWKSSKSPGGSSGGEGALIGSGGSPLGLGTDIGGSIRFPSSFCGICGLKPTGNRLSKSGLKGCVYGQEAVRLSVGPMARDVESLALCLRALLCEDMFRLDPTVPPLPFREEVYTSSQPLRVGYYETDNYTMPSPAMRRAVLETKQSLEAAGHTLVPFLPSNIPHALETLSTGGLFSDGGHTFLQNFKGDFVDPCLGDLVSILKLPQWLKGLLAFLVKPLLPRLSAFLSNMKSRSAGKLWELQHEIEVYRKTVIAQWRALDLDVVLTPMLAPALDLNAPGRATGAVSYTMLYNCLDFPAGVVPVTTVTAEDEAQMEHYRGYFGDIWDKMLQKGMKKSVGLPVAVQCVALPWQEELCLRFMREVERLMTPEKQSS
Description: In vitro competitive activity-based protein profiling, FAAH, human. As to conditions: for inhibition at 1 µM: read-out: FAAH % inh. 1 μM (human).

For assay [4], the target named is T4, MAGL (Mus musculus, UniProt O35678).
T4 sequence (O35678 1-303): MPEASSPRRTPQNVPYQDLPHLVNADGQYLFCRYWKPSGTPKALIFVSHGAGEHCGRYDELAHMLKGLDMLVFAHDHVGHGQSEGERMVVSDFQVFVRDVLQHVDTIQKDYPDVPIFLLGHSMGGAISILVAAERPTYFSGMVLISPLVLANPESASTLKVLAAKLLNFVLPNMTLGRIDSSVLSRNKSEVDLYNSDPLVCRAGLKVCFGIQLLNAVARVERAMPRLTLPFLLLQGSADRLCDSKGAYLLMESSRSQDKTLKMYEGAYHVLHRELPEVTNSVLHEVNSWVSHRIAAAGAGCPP
Description: In vitro competitive activity-based protein profiling, MAGL, mouse. As to conditions: read-out: MAGL % inh. 1 μM (mouse).

The structures appear in SMILES notation.

As for `O=C(O)c1ccn(C(=O)N2CCC3(CCN(Cc4ccc(C(F)(F)F)c(Cl)c4)C3)CC2)n1` [Example 78, 1-(2-(3-chloro-4-(trifluoromethyl)benzyl)-2,8-diazaspiro[4.5]decane-8-carbonyl)-1H-pyrazole-3-carboxylic acid], the inhibition at 1 µM is 0 to 25% on FAAH [1], above 75% on MAGL [2], 0 to 25% on FAAH [3] and above 75% on MAGL [4].
On to `O=C(O)c1ccn(C(=O)N2CCC3(CCN(Cc4cccc(OC(F)(F)F)c4)C3)CC2)n1` [Example 153, 1-(2-(3-(trifluoromethoxy)benzyl)-2,8-diazaspiro[4.5]decane-8-carbonyl)-1H-pyrazole-3-carboxylic acid], for which the inhibition at 1 µM is 25 to 50% at FAAH [1], above 75% at MAGL [2], 0 to 25% on FAAH [3] and above 75% at MAGL [4].
Turning to `O=C(O)c1ccn(C(=O)N2CCN(Cc3cccc(Oc4ccc(C(F)(F)F)cn4)c3)CC2)n1` [Example 61, 1-(4-(3-((5-(trifluoromethyl)pyridin-2-yl)oxy)benzyl)piper-azine-1-carbonyl)-1H-pyrazole-3-carboxylic acid], the inhibition at 1 µM on FAAH [1], at MAGL [2], on FAAH [3] and at MAGL [4] was above 75% throughout. In addition, the 50% inhibitory concentration (IC50) at FAAH [3] was in the range of 100 to 1000 nM.
Regarding `CN(Cc1cc(Cl)ccc1C(F)(F)F)C1CCN(C(=O)n2cc(Cl)c(C(=O)O)n2)CC1` [Example 112, 4-chloro-1-(4-((5-chloro-2-(trifluoromethyl)benzyl)(methyl)amino)piperidine-1-carbonyl)-1H-pyrazole-3-carboxylic acid], the inhibition at 1 µM on FAAH [1], on MAGL [2], on FAAH [3] and at MAGL [4] was above 75% each time. Also, the IC50 at FAAH [3] was in the range of 100 to 1000 nM.
Turning to `CN(Cc1cccc(-c2ccccc2)c1)[C@@H]1C[C@@H]2CN(C(=O)n3ccc(C(=O)O)n3)C[C@@H]2C1` [Example 163, 1-(cis-5-(([1,1′-biphenyl]-3-ylmethyl)(methyl)amino)octahydro-cyclopenta[c]pyrrole-2-carbonyl)-1H-pyrazole-3-carboxylic acid], the inhibition at 1 µM fell in the range of 0 to 25% at FAAH [1], 0 to 25% on MAGL [2], 25 to 50% at FAAH [3] and 0 to 25% at MAGL [4].
As to `O=C(O)c1nn(C(=O)N2CC3CC(OCc4ccccc4Cl)CC3C2)cc1C(F)(F)F` (stereo not shown) [Example 143, 1-(5-((2-chlorobenzyl)oxy)octahydrocyclopenta [c]pyrrole-2-carbonyl)-4-(trifluoromethyl)-1H-pyrazole-3-carboxylic acid], the inhibition at 1 µM on FAAH [1] was above 75%; on MAGL [2] it was 0 to 25%; at FAAH [3] it was above 75%; at MAGL [4], 0 to 25%. Further, the IC50 lay within 1000 to 10000 nM on MAGL [2] and 100 to 1000 nM on FAAH [3].
As for `O=C(O)c1ccn(C(=O)N2CC3CN(Cc4cccc(OC(F)(F)F)c4)CC3C2)n1` (stereo not shown) [Example 117, 1-(5-(3-(trifluoromethoxy)benzyl)octahydro-pyrrolo[3,4-c]pyrrole-2-carbonyl)-1H-pyrazole-3-carboxylic acid], the inhibition at 1 µM on FAAH [1] lay within 50 to 75%; on MAGL [2], 50 to 75%; at FAAH [3], 0 to 25%; on MAGL [4], 50 to 75%.
As for `O=C(O)c1ccn(C(=O)N2CCN(Cc3cccc(Oc4ccccn4)c3)CC2)n1` [Example 52], the inhibition at 1 µM on FAAH [1] was 0 to 25%; at MAGL [2], above 75%; at FAAH [3], 0 to 25%; at MAGL [4] it was above 75%.
In the case of `O=C(O)c1ccn(C(=O)N2C[C@H]3C[C@@H](OCc4ccccc4Cl)C[C@H]3C2)n1` [Example 41, 1-(cis-5-((2-chlorobenzyl)oxy)octahydrocyclo-penta[c]pyrrole-2-carbonyl)-1H-pyrazole-3-carboxylic acid], the inhibition at 1 µM was 0 to 25% on FAAH [1], above 75% at MAGL [2], above 75% at FAAH [3] and 0 to 25% on MAGL [4].
